Results published in patent publication US20100069366A1, “ANTIBACTERIAL QUINOLINE DERIVATIVES” (JANSSEN-CILAG, priority 2006, published 2010).
Converted amounts (≈) assume the structure as drawn.

Tests used:
Type in all cases: cell-based
M. Smegmatis ATCC607 = experiment: In-vitro anti-bacterial activity against strain M. smegmatis ATCC607; conditions: for M. smegmatis IC90: 90% inhibitory concentration for bacterial growth, 48 hours, Alamar Blue fluorescence; for IC90: Mycolicibacterium smegmatis, ATCC607, 48 h, read-out: M. smegmatis IC90 (μg/ml), 90% inhibitory concentration for bacterial growth, Alamar Blue fluorescence
Method: Flat-bottom, sterile 96-well plastic microtiter plates were filled with 180 μl of sterile deionized water, supplemented with 0.25% BSA. Subsequently, stock solutions (7.8× final test concentration) of compounds were added in 45 μl volumes to a series of duplicate wells in column 2 so as to allow evaluation of their effects on bacterial growth. Serial five-fold dilutions (45 μl in 180 μl) were made directly in the microtiter plates from column 2 to 11 using a customised robot system (Zymark Corp., Hopkinton, Mass.). Pipette tips were changed after every 3 dilutions to minimize pipetting errors with high hydrophobic compounds. Untreated control samples with (column 1) and without (column 12) inoculum were included in each microtiter plate. Approximately 250 CFU per well of bacteria inoculum, in a volume of 100 μl in 2.8× Mueller-Hinton broth medium, was added to the rows A to H, except column 12. The same volume of broth medium without inoculum was added to column 12 in row A to H. The cultures were incubated at 37° C. for 48 hours in a humidified 5% CO2 atmosphere (incubator with open air valve and continuous ventilation). At the end of incubation, two days after inoculation, the bacterial growth was quantitated fluorometrically. Therefore Alamar Blue (10×) was added to all wells in a volume of 20 μl and plates were incubated for another 2 hours at […]
The fluorescence was read in a computer-controlled fluorometer (Cytofluor, Biosearch) at an excitation wavelength of 530 nm and an emission wavelength of 590 nm (gain 30).

[1] = system: Streptococcus pneumoniae (ATCC6305); experiment: Microtitre plate assay, IC90 determination, SPN 6305; conditions: 90% inhibitory concentration for bacterial growth, resazurin; for IC90 (μg/ml) SPN 6305: Streptococcus pneumoniae ATCC6305; for IC90: Streptococcus pneumoniae, ATCC6305, read-out: IC90 (μg/ml) SPN 6305, Streptococcus pneumoniae ATCC6305
Method: (§1) The bacteria used in this study were grown overnight in flasks containing 100 ml Mueller-Hinton Broth (Becton Dickinson—cat. no. 275730) in sterile de-ionized water, with shaking, at 37° C. Stocks (0.5 ml/tube) were stored at −70° C. until use. Bacteria titrations were performed in microtiter plates to detect the TCID50, in which the TCID50 represents the dilution that gives rise to bacterial growth in 50% of inoculated cultures.
(§2) In general, an inoculum level of approximately 100 TCID50 was used for susceptibility testing.
(§3) Flat-bottom, sterile 96-well plastic microtiter plates were filled with 180 μl of sterile deionized water, supplemented with 0.25% BSA. Subsequently, stock solutions (7.8× final test concentration) of compounds were added in 45 μl volumes in column 2 Serial five-fold dilutions (45 μl in […]) were made directly in the microtiter plates from column 2 to reach column 11. Untreated control samples with (column 1) and without (column 12) inoculum were included in each microtiter plate. Depending on the bacteria type, approximately 10 to 60 CFU per well of bacteria inoculum (100 TCID50), in a volume of 100 μl in 2.8× Mueller-Hinton broth medium, was added to the rows A to H, except column 12. The same volume of broth medium without inoculum was added to column 12 in row A to H. The cultures were incubated at 37° C. for 24 hours under a normal atmosphere (incubator with open air valve and continuous ventilation). At the end of incubation, one day after inoculation, the bacterial growth was quantitated fluorometrically. Therefore resazurin (0.6 mg/ml) was added in a volume of 20 μl to all wells 3 hours after inoculation, and the plates were re-incubated overnight. A change in colour from blue to pink indicated the growth of bacteria. The fluorescence was read in a computer-controlled fluorometer (Cytofluor Biosearch) at an excitation wavelength of 530 nm and an emission wavelength of 590 nm. The % growth inhibition achieved by the compounds was calculated according to standard methods.

[2] = system: Staphylococcus aureus (ATCC29213); experiment: Microtitre plate assay, IC90 determination, STA 29213; conditions: for IC90 (μg/ml) STA 29213: Staphylococcus aureus ATCC29213, 90% inhibitory concentration for bacterial growth, resazurin; for IC90: Staphylococcus aureus, ATCC29213, read-out: IC90 (μg/ml) STA 29213
Method: as §1, §2, §3

| Compound | M. smegmatis IC90 (M. Smegmatis ATCC607) [µg/mL] | IC90 (μg/ml) SPN 6305 [1] [µg/mL] | IC90 (μg/ml) STA 29213 [2] [µg/mL] | IC90 (M. Smegmatis ATCC607) [µg/mL] | IC90 [2] [µg/mL] | IC90 [1] [µg/mL] |
| --- | --- | --- | --- | --- | --- | --- |
| COc1nc2ccc(-c3cc4ccccc4s3)cc2cc1C(C(=CCN(C)C)c1cccc2ccccc12)c1ccccc1 (mixture of isomers) [Compound 34] | 2.35 | 10.51 |  |  |  |  |
| COc1nc2ccc(Br)cc2cc1C(=C(CCN1CCOCC1)c1ccccc1)c1ccccc1 (mixture of isomers) [Compound 43] | 4.21 | 8.39 | 52.95 |  |  |  |
| COc1nc2ccc(Br)cc2cc1C(=C(CCN1CCN(C)CC1)c1ccccc1)c1ccccc1 (mixture of isomers) [Compound 44] | 4.31 | 10.82 | 10.82 |  |  |  |
| COc1nc2ccc(Br)cc2cc1C(=C(CCN1CCN(C)CC1)c1ccccc1)c1ccccc1 (mixture of isomers) [Compound 45] | 9.65 | 10.82 | 43.09 |  |  |  |
| COc1nc2ccc(F)cc2cc1C(C(=CCN(C)C)c1ccccc1)c1ccccc1 (racemic) [Compound 24] | 5.37 | 1.51 (≈ 3.54 µM) | 33.88 (≈ 79.4 µM) |  |  |  |
| CCN(CC)CC=C(c1cccc2ccccc12)C(c1ccccc1)c1cc2cc(Br)ccc2nc1OC (racemic) [Compound 28] | 1.79 | 2.01 (≈ 3.55 µM) | 8.96 (≈ 15.8 µM) |  |  |  |
| COc1ccc2nc(OC)c(C(C(=CCN(C)C)c3ccccc3)c3ccccc3)cc2c1 (racemic) [Compound 31] | 6.95 | 7.8 (≈ 17.8 µM) | 39.09 (≈ 89.1 µM) |  |  |  |
| COc1nc2ccc(-c3cc4ccccc4s3)cc2cc1C(C(=CCN(C)C)c1cccc(F)c1)c1ccccc1 (racemic) [Compound 33] | 7.03 | 7.89 (≈ 14.1 µM) | 8.86 (≈ 15.9 µM) |  |  |  |
| COc1nc2ccc(Br)cc2cc1C(C(=CCn1cncn1)c1ccccc1)c1ccccc1 (racemic) [Compound 47] | 20.36 |  |  |  |  |  |
| COc1nc2ccc(Br)cc2cc1C(C(=CCN1CCN(C)CC1)c1ccccc1)c1ccccc1 (racemic) [Compound 48] | 1.72 | 2.72 (≈ 5.01 µM) | 10.82 (≈ 19.9 µM) |  |  |  |
| COc1nc2ccc(Br)cc2cc1C(=C(CCn1ccnc1)c1ccccc1)c1ccccc1 (single isomer, unassigned) [Compound 5] | 5.1 | 36.14 (≈ 70.8 µM) | 36.14 (≈ 70.8 µM) |  |  |  |
| COc1nc2ccc(Br)cc2cc1C(=C(CCn1ccnc1)c1ccccc1)c1ccccc1 (single isomer, unassigned) [Compound 6] | 10.18 | 10.18 (≈ 19.9 µM) | 10.18 (≈ 19.9 µM) |  |  |  |
| COc1nc2ccc(F)cc2cc1C(=C(CCN(C)C)c1ccccc1)c1ccccc1 (single isomer, unassigned) [Compound 39] | 16.98 | 8.51 (≈ 20 µM) | 33.88 (≈ 79.4 µM) |  |  |  |
| COc1nc2ccc(Br)cc2cc1C(=C(CCn1cncn1)c1ccccc1)c1ccccc1 (single isomer, unassigned) [Compound 42] | 22.84 |  |  |  |  |  |
| COc1nc2ccc(Br)cc2cc1/C(=C(/CCN(C)C)c1ccccc1)c1ccc(Cl)cc1 [Compound 1] |  |  |  | 1.65 (≈ 3.16 µM) | 8.27 (≈ 15.8 µM) | 1.65 (≈ 3.16 µM) |
| CSc1nc2ccc(Br)cc2cc1/C(=C(/CCN(C)C)c1ccccc1)c1ccccc1 [Compound 2] |  |  |  | 1.59 (≈ 3.16 µM) | 7.98 (≈ 15.8 µM) | 1.59 (≈ 3.16 µM) |
| CSc1nc2ccc(Br)cc2cc1/C(=C(\CCN(C)C)c1ccccc1)c1ccccc1 [Compound 3] |  |  |  | 2 (≈ 3.97 µM) | 7.98 (≈ 15.8 µM) | 1.59 (≈ 3.16 µM) |
